US7785566B2, “Pharmaceutical compounds” (GE Healthcare, Inc., priority 2003, dated 2010)

Tested on: ventricular extrasystoles after LAD artery occlusion
Assay: Antiarrythmic effect in a post myocardial infarction (MI) pig model (LAD ligation)
Assay type: in vivo
Text: The pharmaceutical cPn216-[…]OH (X) was examined according to the following procedure:
A pig was anaestetised and put on artificial overpressure ventilation. Access to the heart was obtained by a midline sternotomy and removal of the anterior pericardium. The LAD artery was occluded by ligation above the 2nd branch and one of the collaterals was occluded as well. This caused development of frequent ventricular extrasystoles, known to proceed into ventricular tachycardia and fibrillation within minutes from previous experiments with the same type of preparation. […] An initial rise in mean blood pressure was noticed. Ventricular extrasystoles reappeared gradually after about 15 minutes and a new injection of 0.5 mg of the compound of formula (X) was given. […] The pig was then given a lethal dose of potassium chloride to terminate the experiment.
A similar set of observations was made in a second pig experiment.

[1] = pig, hour following second 0.5 mg injection

## CCC(C)[C@H](NC(=O)[C@@H]1CCCN1C(=O)[C@H](Cc1cnc[nH]1)NC(=O)[C@@H](NC(=O)[C@H](Cc1ccc(O)cc1)NC(=O)[C@@H](NC(=O)[C@H](CCCNC(=N)N)NC(=O)CNCCC(CCNC(C)(C)/C(C)=N\O)CCNC(C)(C)/C(C)=N\O)C(C)C)C(C)CC)C(=O)O (some centres unmarked) [(X)]
pig, ECG recordings before and after the first injection
  Duration of QRS complexes (ECG before and after first injection): shortening
pig, LAD occluded, frequent ventricular extrasystoles, i.v. 0,5 mg, within few minutes
  Heart rhythm after first intravenous injection: Complete stabilisation of the condition with return to sinus rhythm
pig, after first i.v. injection of 0,5 mg
  Time until ventricular extrasystoles reappeared: about 15 minutes
[1]
  Blood pressure during the following hour: slightly reduced but adequate constant
  Heart rhythm during the following hour: stable sinus rhythm
pig, i.v. 0,5 mg, first injection
  Mean blood pressure after first injection: initial rise
pig, new injection of 0.5 mg after reappearance of extrasystoles
  Heart rhythm after second injection: stabilised with regular sinus rhythm
post-MI pig preparation
  Overall anti-arrythmic activity in this preparation: act as an anti-arrythmic drug
